{"source": "BindingDB's records for doi:10.1016/S0960-894X(97)10006-3", "about": "(1997)"}
{"assay": "Binding affinity for DHP (Dihydropyridine) site of L-type calcium channel of calf heart in the resting state", "units": {"IC50": "nM"}}
{"smiles": "CCOC(=O)C1=C(C)NC(C)=C(C#N)[C@@H]1c1cnccc1-c1cccc2ccccc12", "IC50": 270}
{"smiles": "CCOC(=O)C1=C(C)NC(C)=C(C#N)[C@@H]1c1cnccc1-c1ccc2ccccc2c1", "IC50": 100}
{"smiles": "CCOC(=O)C1=C(C)NC(C)=C(C#N)[C@@H]1c1cnccc1-c1ccccc1", "IC50": 250}
